Tests used:
[1] = tested on: IL-6; test: LPS-induced IL-6 secretion reduction in RAW264.7 cells (ELISA); format: cell-based, mouse; conditions: sample 100 μg/ml 1 h, then LPS 1 μg/ml 24 h, Table 2
Protocol: In DMEM (Dulbecco Modified Eagle Medium, Hyclone, Thermo Scientific) medium to which 10% Fetal Bovine Serum was added, RAW264.7 cells, a mouse macrophage family, were suspended at a concentration of 1×10^5 cells/ml, and culture was conducted in a 5% CO2 humidified incubator at 37° C. The cultured RAW264.7 cells were inoculated into a 48 well plate by 5×10^4 cells/ml and stabilized for 15 hours. Then, the culture solution was treated with a glycerol derivative compounds of the type shown in Table 2 and 3 below for 1 hour and then was treated with 1 μg/ml of Lipopolysaccaride (LPS) of a cell stimulator, and subsequent further incubation was conducted for 24 hours. Thereafter 0.5 ml of the culture supernatant was collected for each well and centrifuged (at 3000 rpm, 5 minutes) to recover the supernatant. The IL-6 level in the recovered supernatant was measured according to the manual provided by the Mouse IL-6 ELISA set (BD Biosciences). The day before ELISA was carried out, the IL-6 capture antibody was diluted in phosphate buffered saline, coated on a microwell, and then stored at 4° C. overnight. Each well was washed three times with a buffer solution and then blocked with 2% Bovine Serum Albumin (BSA) for 1 hour at room temperature. After washing with buffer solution three times, […] of sample was dispensed into each well and left at room temperature for 2 hours. Detection antibody which was washed 3 times with washing buffer solution and diluted was dispensed into each well and allowed to react at room temperature for 1 hour and left at room temperature for 1 hour. Thereafter, the secondary HRP conjugated antibody was reacted at room temperature for 30 minutes, washed three times with a buffer solution, and treated with 50 μl of stop solution for each well, and then the optical density was measured at 450 nm with an ELISA microplate leader. The results of the IL-6 expression reduction rate (IL-6 concentration) are shown in Table 2, Table 3, FIG. 1 and FIG. 2 below.

[2] = tested on: STAT3; test: IL-6-induced STAT3 activity, SEAP expression in HEK-Blue IL-6 cells; format: cell-based; conditions: HEK-Blue IL-6 cells; for STAT3 activity_SEAP expression(%) (average ± deviation): sample 100 μg/ml 1 h, then IL-6 5 ng/ml 24 h, negative control = 100; for decrease of STAT3 activity compared to the IL-6 cytokine-treated group: 100 μg/ml
Protocol: HEK-Blue™ IL-6 cells were used to confirm STAT3 activity by STAT3-induced SEAP (secreted embryonic alkaline phosphatase) expression. In DMEM (Hyclone, Thermo Scientific) medium to which 10% Fetal Bovine Serum was added, HEK-Blue™ IL-6 cells were cultured at a concentration of 1×10^5 cells/ml, and maintained in a 5% CO2 humidified incubator at 37° C. The cultured HEK-Blue™ IL-6 cells were inoculated by 1×10^5 cells/ml. Then, the culture solution was treated with a glycerol derivative compounds of the type shown in Table 4 below for 1 hour and then IL-6 (5 ng/ml) was further incubated for 24 hours for STAT3 activity. Thereafter, the culture supernatant was collected for each well and centrifuged (at 3000 rpm, 5 minutes) to recover the supernatant. The SEAP expression level in the recovered supernatant was mixed with Quanti blue reagent and the supernatant at a ratio of 1:10 and left at 37° C. for about 30 minutes. Then, the SEAP concentration was confirmed at 650 nm wavelength using a spectrophotometer, and the results (STAT3 activity inhibitory ability) thereof are shown in Table 4 and FIG. 3 below.

[3] = tested on: IL-4; test: PKC activator-induced IL-4 secretion reduction in EL-4 cells (ELISA); format: cell-based, mouse; conditions: sample 100 μg/ml 2 h, then PKC activator 18 h, Table 11
Protocol: In DMEM (Dulbecco Modified Eagle Medium, Hyclone, Thermo Scientific) medium to which 10% Fetal Bovine Serum was added, EL-4 cells, a mouse lymphoma family, were subcultured at a concentration of 1×10^5 cells/ml, and culture was conducted in a 5% CO2 humidified incubator at 37° C. The cultured EL-4 cells were inoculated into a 48 well plate by 5×10^4 cells/ml and stabilized for 30 hours. Then, the culture solution was treated with a glycerol derivative compounds of the type shown in Table 11 and 12 below for 2 hours. Thereafter, it were treated with 0.5 μg/ml of PKC activator (p10, some kind of PMA) of a cell stimulator, and subsequent further incubation were conducted for 18 hours. Thereafter 0.5 ml of the culture supernatant was collected for each well and centrifuged (at 3000 rpm, 5 minutes) to recover the supernatant. The IL-4 level in the recovered supernatant was measured according to the manual provided by the Mouse IL-4 ELISA set (BD Biosciences). The day before ELISA was carried out, the IL-4 capture antibody was diluted in phosphate buffered saline, coated on a microwell, and then stored at 4° C. overnight. Each well was washed three times with a buffer solution and then blocked with 2% Bovine Serum Albumin (BSA) for 1 hour at room temperature. After washing with buffer solution three times, 100 μl of sample was dispensed into each well and left at room temperature for 2 hours. Detection antibody which was washed 3 times with washing buffer solution and diluted was dispensed into each well and allowed to react at room temperature for 1 hour and left at room temperature for 1 hour. Thereafter, the secondary HRP conjugated antibody was reacted at room temperature for 30 minutes, washed three times with buffer solution, and treated with 50 μl of stop solution for each well, and then the optical density was measured at 450 nm with an ELISA microplate leader. The results of the measured expression reduction rate ([…]) were shown in Table 11, Table 12, FIG. 11 and FIG. 12 below.

[4] = tested on: CXCL8 (IL-8); test: CXCL8 (IL-8) expression reduction in Gemcitabine-treated THP-1 cells (ELISA); format: cell-based, human; conditions: THP-1 cells; for CXCL8 [IL-8] concentration (average ± deviation): sample 100 μg/ml 1 h, then Gemcitabine 2 μg/ml 24 h
Protocol: In RPMI (Hyclone, Thermo Scientific) medium to which 10% Fetal Bovine Serum was added, THP-1 cells, a human macrophage family, were suspended at a concentration of 1×10^5 cells/ml, and culture was conducted in a 5% CO2 humidified incubator at 37° C. The cultured THP-1 cells were inoculated into a 12 well plate by 1×10^6 cells/ml and stabilized for 30 minutes. Then, the culture solution was treated with a glycerol derivative compounds of the type shown in Table 6 below for 1 hour and then was treated with Gemcitabine (2 μg/ml) of a cell stimulator, and subsequent further incubation was conducted for 24 hours. Thereafter 1.5 ml of the culture supernatant was collected for each well and centrifuged (at 3000 rpm, 5 minutes) to recover the supernatant. The CXCL8 (IL-8) level in the recovered supernatant was measured according to the manual provided by the human IL-8 ELISA set (BD Biosciences). The day before ELISA was carried out, the IL-8 capture antibody was diluted in phosphate buffered saline, coated on a microwell, and then stored at 4° C. overnight. Each well was washed three times with a buffer solution and then blocked with 2% Bovine Serum Albumin (BSA) for 1 hour at room temperature. After washing with washing buffer solution three times, 100 μl of sample was dispensed into each well and left at room temperature for 2 hours. Detection antibody which was washed 3 times with washing buffer and diluted was dispensed into each well and allowed to react at room temperature for 1 hour and left at room temperature for 1 hour. Thereafter, the secondary HRP conjugated antibody was reacted at room temperature for 30 minutes, washed three times with a washing buffer, and treated with 50 μl of stop solution for each well, and then the optical density was measured at 450 nm with an ELISA microplate leader.

[5] = tested on: HL-60 cells; test: Migration of HL-60 cell line toward THP-1 culture supernatant (transmigration assay); format: cell-based, human; conditions: supernatant of THP-1 cells treated with sample 100 μg/ml 1 h, then Gemcitabine 2 μg/ml 24 h
Protocol: In RPMI (Hyclone, Thermo Scientific) medium to which 10% Fetal Bovine Serum was added, THP-1 cells, a human macrophage family, were subcultured at a concentration of 1×10^5 cells/ml, and culture was conducted in a 5% CO2 humidified incubator at 37° C. In order to prepare the THP-1 cell culture solution to be treated in the lower well during the transmigration assay, first, the cultured THP-1 cells were inoculated into a 12 well plate by 1×10^6 cells/ml and stabilized for 30 minutes. Then, the culture solution was treated with a glycerol derivative compounds of the type shown in Table 7 below for 1 hour and then was treated with Gemcitabine (2 μg/ml) of a cell stimulator, and subsequent further incubation was conducted for 24 hours. Thereafter 1.5 ml of the culture supernatant was collected for each well and centrifuged (at 3000 rpm, 5 minutes) to recover the supernatant. The CXCL8 (IL-8) level in the recovered supernatant was measured according to the manual provided by Cultrex 96 well Laminin Cell Invasion assay. The day before Transmigration assay was carried out, a 1× Lamin I solution was treated in the upper Invasion Chamber and coated. Thereafter, in RPMI (Hyclone, Thermo Scientific) medium to which 10% Fetal Bovine Serum was added, the cultured HL-60 cells were despensed of 5×10^4 cells/chamber, and 150 μl of the THP-1 culture supernatant prepared in advance was added to the lower chamber. Thereafter the upper chamber was removed, and the cells were attached to the bottom of the lower chamber by a centrifuge, and then the supernatant was removed. Cell dissociation/Calcein-AM solution was added and reacted for 1 hour. Then, the value obtained using a fluorescence spectroscopy was calculated by converting the number of cells.

[6] = tested on: STAT6; test: IL-4-induced STAT6 activity, pGL4-STAT6 luciferase reporter in A549 cells; format: cell-based; conditions: sample 100 μg/ml 1 h, then IL-4 (2 ng/ml) 20 h, Table 9
Protocol: In DMEM (Dulbecco Modified Eagle Medium, Hyclone, Thermo Scientific) medium to which 10% Fetal Bovine Serum was added, A549 cells were subcultured at a concentration of 1×10^5 cells/ml, and culture was conducted in a 5% CO2 humidified incubator at 37° C. The cultured A549 cells were inoculated into a 48 well plate by 1×10^5 cells/ml and stabilized for 18 hours. Thereafter, pGL4-STAT6 reporter vector containing a STAT6 binding promoter portion was mixed with Attractene to induce complex formation at room temperature for 15 minutes. This complex was treated with the cells and then further incubated for 24 hours. Thereafter, the culture solution was treated with a glycerol derivative compounds of the type shown in Table 9 and 10 below for 1 hour, and then IL-4 (2 ng/ml or 10 ng/ml) was further incubated for 20 hours for STAT6 activity. Thereafter, the culture supernatant was removed for each well, and the remaining cells were lysed with a cell lysis buffer, and then cell lysate was recovered. 90 μl of luciferase reagent was mixed with 10 μl of the recovered cell lysate, and the degree of fluorescence was confirmed using a luminometer. The results are shown in Table 9, Table 10, FIG. 9 and FIG. 10 below.

Row | Structure (SMILES) | IL-6 concentration (average ± deviation) [1] | STAT3 activity_SEAP expression(%) (average ± deviation) [2] | IL-4 concentration (average ± deviation) [3] | decrease of STAT3 activity compared to the IL-6 cytokine-treated group [2] | CXCL8 [IL-8] concentration (average ± deviation) [4] | Number of HL-60 cells migrated through Transwell [5] | STAT6 activity_Luciferase activity (average ± deviation) [6] | reduction of CXCL8 (IL-8) expression/secretion ([4]; Gemcitabine-treated, 100 μg/ml)
1 | CCCCC/C=C\C/C=C\CCCCCCCC(=O)OC(COC(=O)CN)COC(=O)CCCCCCCCCCCCCCC (centres unmarked) [EC_A57] | 0.120 ± 0.002 µg/mL | 243.0 ± 29.5% | 745.6 ± 8.35 pg/µL |  |  |  |  | 
2 | CCCCC/C=C\C/C=C\CCCCCCCC(=O)OC(COC(=O)CCC)COC(=O)CCCCCCCCCCCCCCC (centres unmarked) [EC_A17] | 0.154 ± 0.001 µg/mL | 185.4 ± 19.3% |  | about 25% | 110 ± 0.2 pg/µL | 30692.8 Cell Number | 476.2 ±113.4 | 
3 | CCCCC/C=C\C/C=C\CCCCCCCC(=O)OC(COC(=O)CCCCCCCCCCCCCCC)COC(=O)C(C)C (centres unmarked) [EC_A19] | 0.204 ± 0.014 µg/mL | 162.9 ± 33.2% |  |  | 277.9 ± 3.1 pg/µL | 14882.8 Cell Number | 898.7 ± 115.9 | 
4 | CCCCC/C=C\C/C=C\CCCCCCCC(=O)OC(COC(=O)CCCCCCCCCCCCCCC)COC(=O)C(C)(C)C (centres unmarked) [EC_A22] |  | 169.5 ± 10.5% |  | about 25% |  | 1181.1 Cell Number | 645.5 ± 111.4 | 
5 | CCCCC/C=C\C/C=C\CCCCCCCC(=O)OC(COC(=O)CCCC)COC(=O)CCCCCCCCCCCCCCC (centres unmarked) [EC_A18] | 0.147 ± 0.003 µg/mL | 166.2 ± 29.6% |  | about 25% | 84.0 ± 1.8 pg/µL | 9891.6 Cell Number | 1189.2 ± 174.7 | about 20%
6 | CCCCC/C=C\C/C=C\CCCCCCCC(=O)OC(COC)COC(=O)CCCCCCCCCCCCCCC (centres unmarked) [EC_A13] | 0.266 ± 0.024 µg/mL | 167.2 ± 8.4% |  | about 25% | 96.6 ± 0.2 pg/µL | 8679.7 Cell Number | 1150.2 ± 44.9 | 
7 | CCCCC/C=C\C/C=C\CCCCCCCC(=O)OC(COC(=O)CCCCCCCCCCCCCCC)COC(=O)C(C)CC (centres unmarked) [EC_A20] | 0.055 ± 0.001 µg/mL | 196.7 ± 35.1% | 194.2 ± 47.5 pg/µL |  |  |  | 609.5 ± 197.0 | 
8 | CCCCC/C=C\C/C=C\CCCCCCCC(=O)OC(COCC)COC(=O)CCCCCCCCCCCCCCC (centres unmarked) [EC_A14] | 0.277 ± 0.002 µg/mL | 185.0 ± 30.0% |  |  |  |  | 539.2 ± 40.3 | 

— patent US12187672B2, “1,2-diacylglycerol compound, preparation method therefor, and immunomodulator containing same as active ingredient” (ENZYCHEM LIFESCIENCES CORPORATION, priority 2018, dated 2025)
